Assay results reported in PMC8333425, “Discovery of a dual Ras and ARF6 inhibitor from a GPCR endocytosis screen” (Nature Communications, 2021).

Tested on: Rac/Cdc42
Experiment: Rac/Cdc42 BRET sensor (PAK-CRIB-RlucII / rGFP-CAAX), AT1R-mediated
Format: cell-based, human
Excerpt: Since 21 inhibited both ERK1/2 and Akt activation by GPCRs and EGFR, we looked at a common target involved in both pathways. The small G protein Ras is an upstream regulator of both Ras-RAF-MEK-ERK and PI3K/Akt signaling pathways[35],[36]. Therefore, we explored 21’s ability to inhibit Ras activity using GST-Raf1-Ras-binding domain (RBD) in a pull-down assay. A reduction of 60% in GTP-bound Ras was noticed in pulled-down from cells treated with 21 and stimulated with either AT1R or EGFR, as compared to vehicle-treated cells (Fig. 4a, b). Complementary to this in vitro assay, we generated a Ras BRET assay, using the Raf-Ras binding domain tagged with RlucII (Raf1-RBD-RlucII) and the rGFP at the PM (rGFP-CAAX) (Supplementary Fig. 3c), to assess 21’s effects on Ras activation kinetics. […] Overexpression of either the active form of Ras (G12V) or SOS1 anchored at the PM (SOS-CAAX) produced a robust basal BRET signal that was no longer modulated by receptor activation (Supplementary Fig. 3d). […] 21’s potency to inhibit ARF6 and Ras is also consistent with its relative efficacy for inhibiting AT1R internalization and MAPK, respectively, when used at 50 μM (e.g., around 7 and 70 times the respective IC50s) (Figs. 2e and 3a). We also assessed if 21 was acting as a pan small G protein inhibitor by testing its effect on Rho and Rac/Cdc42. […] To assess Rac/Cdc42 activity, we generated a Rac/Cdc42 BRET sensor that consisted of the PAK-CRIB domain fused to RlucII (PAK-CRIB-RlucII) and the rGFP-CAAX (Supplementary Fig. 3e). PAK-CRIB, which binds to active Rac/Cdc42, was recruited to the PM upon AngII stimulation of cells and generated a robust BRET signal, which was blocked by the overexpression of the DN Rac1-T17N. Overexpression of the constitutively active Rac1-Q61L increased the basal BRET, which was no longer modulated by AT1R stimulation (Supplementary Fig. 3f).
HEK293SL cells were seeded at a density of 7.5 × 10^5 cells per 100-mm dish and 24 h later, transiently transfected as such. For receptor internalization experiments, cells were transfected with 0.12 μg AT1R-RlucII, B2R-RlucII, or β2AR-RlucII and 0.48 μg of either rGFP-CAAX (to assess removal from the PM) or rGFP-FYVE (to assess accumulation in the endosomes). For β-arrestin recruitment assays, cells were transfected with 0.48 μg of receptor-YFP along with 0.12 μg of β-arrestin-RlucII. For β-arrestin/AP-2 binding experiments, cells were transfected with 1 μg Flag-AT1R, 1 μg β2-Adaptin-YFP, and 0.12 μg β-arrestin2-RlucII. For G protein activation, cells were transfected with 3 μg of sp-Flag-AT1R along with either 4.5 μg of the Gαq-polycistronic BRET sensor or 0.24 μg of the Gαi3-RlucII and 0.6 μg of GFP10-Gγ2 and Gβ1 sensors or 0.12 μg PKN-RBD-RlucII and 0.48 μg of rGFP-CAAX. For PKC activation, cells were transfected with 3 μg of sp-Flag-AT1R and 0.18 μg of the PKC sensor. For GTPase activation experiments, cells were transfected with 1 μg Flag-AT1R, 0.48 μg of rGFP-CAAX, and either 0.12 μg of GGA3-PBD-RlucII, PAK-CRIB-RlucII or Raf-RBD-RlucII. For biosensor validation experiments, cells were additionally transfected with 500 ng Flag-K-Ras-WT, Flag-K-Ras-G12V, Flag-K-Ras-SOS-CAAX, HA-ARF6-WT, HA-ARF6-T27N, Myc-Rac1-WT, Myc-Rac1-Q61L or Myc-Rac1-T17N. For PI3K/Akt activation experiments, cells were transfected with 0.48 μg of rGFP-CAAX and 0.12 μg of Akt (PH)-RlucII. After 18 h of transfection, the media was replaced and cells were divided for subsequent experiments. Cells were detached and seeded onto poly-L-ornithine-coated 96-well flat white bottom plates (BrandTech Scientific) at a density of 2.5 × 10^4 cells per well in media. The next day, cells were washed once with Tyrode’s buffer (140 mM NaCl, 2.7 mM KCl, 1 mM CaCl2, 12 mM NaHCO3, 5.6 mM D-glucose, 0.5 mM MgCl2, 0.37 mM NaH2PO4, 25 mM HEPES, pH 7.4) and left in Tyrode’s buffer. […]

## CC(C)C(=O)N1CCN(c2ccc(NC(=O)c3cc4ccccc4o3)cc2Cl)CC1 [Compound 21]
  Rac/Cdc42 activation mediated by AT1R (BRET sensor): failed to inhibit Rac/Cdc42 activation
Log [Comp 21] (M) -4
  Rac MEAN (Fig.4d): 98.9456
Log [Comp21] (M) -4.3
  Rac MEAN (Fig.4d): 92.4505
Log [Comp21] (M) -5
  Rac MEAN (Fig.4d): 96.5837
Log [Comp21] (M) -5.3
  Rac MEAN (Fig.4d): 100.464
Log [Comp 21] (M) -6
  Rac MEAN (Fig.4d): 102.348
Log [Comp21] (M) -6.3
  Rac MEAN (Fig.4d): 96.0354
Log [Comp 21] (M) -7
  Rac MEAN (Fig.4d): 96.1409
